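Exposure lasted 48 hours, with cells grown in 96-well plates and compounds tested at five concentrations. TGI marks complete inhibition of growth.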
Experiments:
Assay in all cases: inhibition of tumour cell growth, NCI panel, 48 h
IGROV1 ovarian = test system: IGROV1 ovarian
NCI-H522 lung = test system: NCI-H522 lung
DMS 273 small cell lung = test system: DMS 273 small cell lung
LXFL 529 NSCLC = test system: LXFL 529 NSCLC
DMS 114 small cell lung = test system: DMS 114 small cell lung
DLD-1 colon = test system: DLD-1 colon
SN12C renal = test system: SN12C renal
MALME-3M melanoma = test system: MALME-3M melanoma
HOP-62 NSCLC = test system: HOP-62 NSCLC
HOP-92 NSCLC = test system: HOP-92 NSCLC
NCI/ADR-RES ovarian = test system: NCI/ADR-RES ovarian
DU-145 prostate = test system: DU-145 prostate

| Compound | TGI (IGROV1 ovarian) | TGI (NCI-H522 lung) | TGI (DMS 273 small cell lung) | TGI (LXFL 529 NSCLC) | TGI (DMS 114 small cell lung) | TGI (DLD-1 colon) | TGI (SN12C renal) | TGI (MALME-3M melanoma) | TGI (HOP-62 NSCLC) | TGI (HOP-92 NSCLC) | TGI (NCI/ADR-RES ovarian) | TGI (DU-145 prostate) |
| --- | --- | --- | --- | --- | --- | --- | --- | --- | --- | --- | --- | --- |
| CC1=N/C(=C\c2ccc(/C=C3/N=C(C)OC3=O)cc2)C(=O)O1 | > 100 µM | > 100 µM | > 100 µM | > 100 µM | > 100 µM | > 100 µM | > 100 µM | > 100 µM | > 100 µM | > 100 µM |  |  |
| N#CNC(N)=NCc1ccccc1 | > 100 µM | > 100 µM | > 100 µM | > 100 µM | > 100 µM | > 100 µM | > 100 µM | > 100 µM | > 100 µM | > 100 µM |  |  |
| COc1cc2oc(-c3ccc(O)cc3)cc(=O)c2c(O)c1C1OC(CO)C(O)C(O)C1O (centres undefined) | > 100 µM | > 100 µM | > 100 µM | > 100 µM | > 100 µM | > 100 µM | > 100 µM | > 100 µM | > 100 µM |  |  |  |
| Cc1ccc(S(=O)(=O)OCC/C(=C\[Si](C)(C)C)c2ccccc2)cc1 | > 100 µM | > 100 µM | > 100 µM | > 100 µM | > 100 µM | > 100 µM | > 100 µM | > 100 µM | > 100 µM | > 100 µM |  |  |
| O=C(NC12CC3CCC1CC(C3)C2)[C@@H]1CCCN1C(=O)OCc1ccccc1 (some centres undefined) | > 100 µM | > 100 µM | > 100 µM | > 100 µM | > 100 µM | > 100 µM | > 100 µM | > 100 µM | > 100 µM | 71.5 µM |  |  |
| OCc1cc2c(cn1)[nH]c1ccc(NCc3ccccc3)cc12 | > 100 µM | 52 µM | 48 µM | 58.8 µM | 51.1 µM | > 100 µM | > 100 µM | > 100 µM | > 100 µM | 57.3 µM |  |  |
| CCCCCCCC(=O)OCC(COC(=O)C(C)(C)C)OC(=O)Cc1ccccc1 (centres undefined) | > 100 µM |  | > 100 µM | > 100 µM | > 100 µM | > 100 µM | > 100 µM | > 100 µM | > 100 µM | > 100 µM |  |  |
| O=C1NC(=O)c2c1n(Cc1ccccc1)c(=O)n2Cc1ccccc1 | > 100 µM | > 100 µM | > 100 µM | > 100 µM | > 100 µM | > 100 µM | > 100 µM | > 100 µM | > 100 µM | > 100 µM |  |  |
| Cc1ccc2c(c1)CN1c3ccc(C)cc3CN2C1c1ccccc1O | > 100 µM | > 100 µM | > 100 µM | > 100 µM | > 100 µM | > 100 µM | > 100 µM | > 100 µM | > 100 µM | > 100 µM |  |  |
| COC(=O)CCC(NC(=S)N/N=C/c1cccs1)C(=O)OC (centres undefined) | > 100 µM | > 100 µM | > 100 µM | > 100 µM | > 100 µM | > 100 µM | > 100 µM | > 100 µM | > 100 µM | > 100 µM |  |  |
| O=c1cc(O)cc2n1CCC2 | > 100 µM | > 100 µM | > 100 µM | > 100 µM | > 100 µM | > 100 µM | > 100 µM | > 100 µM | > 100 µM |  |  |  |
| CC1=C(C(=O)Nc2ccccc2)C(c2ccc(N(C)C)cc2)C(C(=O)Nc2ccccc2)=C(C)N1 | > 88.3 µM | 81.2 µM | > 31.8 µM | > 100 µM | 6.57 µM | > 100 µM | > 100 µM | 39.6 µM | 24.2 µM | > 94.6 µM | > 100 µM | > 91.7 µM |

— PubChem BioAssay (NCI)
